Laboratory results taken from PMC8597786 (Antimicrobial Agents and Chemotherapy, 2021).
Where “and” joins values, the source holds several entries; their conditions need not be identical. Equal values may be shown once. Read-outs that look alike come from different tables or passages of the source.

Legend:
[1] = biological target: T1, SARS-CoV-2 spike RBD/ACE2 (Severe acute respiratory syndrome coronavirus 2, UniProt P0DTC2); test: biochemical; format: binding, SARS-CoV-2 (USA-WA1/2020)
T1 construct: a SARS-CoV-2 RBD protein derived from USA-WA1/2020 and containing a C-terminal His tag; a full-length ACE2 peptide with a C-terminal Fc tag; purchased Sino Biological

[2] = test system: Vero-E6 cells; test: Resazurin cell viability assay in uninfected cells; format: cell-based
Description: (§1) A total of 20,000 Vero-E6 cells were plated in 96-well plates and incubated overnight before addition of compounds at defined concentrations; 0.1% DMSO vehicle control was added to wells in the absence of test compounds. All experimental conditions were performed in duplicate. Cells were then incubated at 37°C and 5% CO2 for 4 days before addition of resazurin (Sigma-Aldrich) to a final concentration of 20 μg/ml. Cells were incubated for an additional 4 h before fluorescence intensity was measured using a ClarioStar plate reader (BMG Labtech). Background fluorescence was subtracted from wells containing resazurin and D10+ medium but no cells.

[3] = biological target: T2, SARS-CoV-2 M^pro (Severe acute respiratory syndrome coronavirus 2, UniProt P0DTD1); test: M^pro enzymatic assay (FRET fluorogenic peptide substrate); format: biochemical
T2 construct: QHD43415.1; amino acids [aa]; 3264 to 3567; HIS-SUMO (N, cleaved yes); made in house; host or cells: E. coli BL21(DE3)

[4] = test system: VSVΔG-S-GFP pseudovirus containing SARS-CoV-2 spike from B.1.1.7; format: cell-based, SARS-CoV-2 B.1.1.7; details: for % GFP+ nuclei, Average: 50 μM; for Infected cells at 50 μM (%), VSVΔG-S-GFP pseudovirus B.1.1.7: 24 h
[5] = biological target: T3, PD-1/PD-L1 (Homo sapiens, UniProt Q9NZQ7); test: PD-1/PD-L1 AlphaScreen interaction assay; format: binding
T3 construct: purchased Sino Biological
Description: PD-1 binding to PD-L1 was also determined using AlphaScreen technology. […] Next, 5 μl of PD-L1-Fc/protein A acceptor beads was added first to the plate, followed by 100 nl of test compound prepared as described above, followed by 5 μl of PD-1-His/nickel chelate donor beads. For each experiment, all conditions were performed in duplicate. Following 2 h of incubation at room temperature, data were collected as described above and normalized to percentage inhibition, where 100% equaled the AlphaScreen signal in the absence of PD-1-His, and 0% equaled the AlphaScreen signal in the presence of both proteins and 0.1% DMSO alone.

[6] = test system: VSVΔG-S-GFP pseudovirus containing SARS-CoV-2 spike (USA-WA1/2020)
[7] = 100 mg/kg; cited from earlier work
[8] = test system: VSVΔG-S-GFP pseudovirus containing SARS-CoV-2 spike from B.1.351; format: cell-based, SARS-CoV-2 B.1.351; details: for % GFP+ nuclei, Average: 50 μM; for Infected cells at 50 μM (%), VSVΔG-S-GFP pseudovirus B.1.351: 24 h
[9] = 200 mg/kg; cited from earlier work
[10] = Resazurin cell viability assay in uninfected cells; format: cell-based; details: African green monkey, uninfected Vero-E6 cells, resazurin, 4 days
Description: as §1

[11] = 200 mg/kg; cited from earlier work; remark: listed apart in the source
[12] = test system: SARS-CoV-2 (BetaCov isolate); details: supernatant viral RNA by quantitative PCR after 48 h, read-out: EC50 in SARS-CoV-2-infected Vero-E6 cells; cited from earlier work
[13] = test system: RBD with ACE2; details: read-out: IC50, inhibition of binding of RBD with ACE2; cited from earlier work
[14] = test system: SARS-CoV-2; details: read-out: EC50, SARS-CoV-2 replication; cited from earlier work
[15] = read-out: IC50 for Spike/ACE2 AlphaScreen

T3 sequence (Q9NZQ7 19-239 limits assumed): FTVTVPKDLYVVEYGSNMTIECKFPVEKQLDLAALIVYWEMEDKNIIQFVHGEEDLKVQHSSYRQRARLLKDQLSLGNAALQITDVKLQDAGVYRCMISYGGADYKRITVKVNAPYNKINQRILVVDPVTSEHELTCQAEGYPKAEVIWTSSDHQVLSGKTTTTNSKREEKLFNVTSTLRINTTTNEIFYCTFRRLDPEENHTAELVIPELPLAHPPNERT

Molecule	IC50 [3]	IC50 [1]	Selectivity index [1]	% GFP+ nuclei, Average [4]	Infected cells at 50 μM (%), VSVΔG-S-GFP pseudovirus B.1.1.7 [4]	IC50 [5]	% GFP+ nuclei, Average ([6]; 50 μM)	Infected cells at 50 μM (%), VSVΔG-S-GFP pseudovirus WA1/2020 ([6]; 24 h)	% GFP+ nuclei, Average [8]	Infected cells at 50 μM (%), VSVΔG-S-GFP pseudovirus B.1.351 [8]	CC50 at 4 days [10]	other results
Cc1c(COc2cc(OCc3cccc(C#N)c3)c(CN3C[C@H](O)C[C@@H]3C(=O)O)cc2Cl)cccc1-c1ccc2c(c1)OCCO2 [BMS-1166, reference compound]	–	–	–	–	–	–	–	–	–	–	–	IC50 [1, 15]: > 100 µM
CC(C)C[C@H](NC(=O)OCc1ccccc1)C(=O)N[C@@H](CC1CCNC1=O)C(O)S(=O)(=O)O (stereo partly shown) [GC-376, reference compound]	–	–	–	–	–	–	–	–	–	–	–	CC50 ([2]; resazurin, 4 days): > 10 µM
Oc1ccc([C@@H]2c3c(O)cc(O)cc3[C@@H]3c4c(cc(O)cc4[C@H]2[C@@H]2c4cc(O)cc5c4[C@@H](c4cc(O)cc(O)c4[C@H]2c2ccc(O)cc2)[C@H](c2ccc(O)cc2)O5)O[C@H]3c2ccc(O)cc2)cc1 [Hopeaphenol, (–)-hopeaphenol]	42.5 µM	0.11 µM	257.3	1.83%	34.1 ± 13.6% and 34.1%	28.3 µM	0.69%	28.2 ± 1.2% and 28.2%	0.93%	20.4 ± 2.4% and 20.4%	> 100 µM	Effect against LPS-induced liver injury in mice [7]: hepatoprotective effects; Plasma glucose in sucrose-loaded mice [9]: reduce plasma glucose; Plasma triglyceride elevation in olive oil-treated mice [11]: inhibit plasma triglyceride elevation
CCC(CC)COC(=O)[C@H](C)N[P@](=O)(OC[C@H]1O[C@@](C#N)(c2ccc3c(N)ncnn23)[C@H](O)[C@@H]1O)Oc1ccccc1 [Remdesivir, remdesivir, reference compound]	–	–	–	–	–	–	–	–	–	–	> 10 µM	–
Oc1ccc(/C=C/c2cc(O)cc(O)c2)cc1 [Resveratrol, resveratrol, reference compound]	–	> 100 µM	–	–	–	–	2.36%	96.3 ± 14.7% and 96.3%	–	–	~100 µM	Total cell nuclei, % of nuclei observed in untreated, infected cells ([6]; 50 μM, 24 h): 60.3 ± 7.0%; EC50 [12]: 10.7 µM
OC[C@H]1O[C@@H](Oc2cc3c4c(c2)[C@@H]([C@@H]2c5cc(O)cc6c5[C@@H](c5cc(O)cc(O)c5[C@H]2c2ccc(O)cc2)[C@H](c2ccc(O)cc2)O6)[C@H](c2ccc(O)cc2)c2c(O)cc(O)cc2[C@H]4[C@H](c2ccc(O)cc2)O3)[C@H](O)[C@@H](O)[C@@H]1O [Vatalbinoside A, vatalbinoside A]	68.7 µM	0.24 µM	92.9	2.35%	43.8 ± 3.4% and 43.8%	22.3 µM	0.99%	40.4 ± 16.7% and 40.4%	1.87%	41.1 ± 2.6% and 41.1%	> 100 µM	–
Oc1ccc([C@@H]2c3c(O)cc(O)cc3[C@@H]3c4c(cc(O)c5c4[C@@H]2[C@H](c2ccc(O)cc2)[C@H]5c2cc(O)cc4c2[C@@H](c2cc(O)cc(O)c2)[C@H](c2ccc(O)cc2)O4)O[C@H]3c2ccc(O)cc2)cc1 [Vaticanol B, vaticanol B]	47.6 µM	0.067 µM	247.8	2.02%	37.7 ± 4.1% and 37.7%	16.6 µM	2.05%	83.7 ± 4.9% and 83.7%	3.29%	72.3 ± 7.3% and 72.3%	> 100 µM	–
Oc1ccc([C@H]2Oc3cc(O)cc([C@@H]4[C@H](c5cc(O)cc(O)c5)[C@@H](c5ccc(O)cc5)O[C@H]4c4ccc(O)cc4)c3[C@@H]2c2cc(O)c3c(c2)[C@@H](c2cc(O)cc(O)c2)[C@H](c2ccc(O)cc2)O3)cc1 [kobophenol A]	–	–	–	–	–	–	–	–	–	–	–	IC50 [13]: 1.8 µM; EC50 [14]: 71.6 µM
REGN10933	–	–	–	–	–	–	–	–	–	–	–	IC50 [1, 15]: 0.00018 µM; Cytotoxicity by resazurin staining ([2]; 4 days of treatment): no evidence of cytotoxicity
